Organism: Rattus norvegicus
Experiment: DrugMatrix - Regimen: Daily Repeat
Format: toxicity, organism-based, Sprague-Dawley
Parameters: regimen Daily Repeat, gender Male, age 6-8 weeks
Conditions: in vivo, po, route oral GAVAGE, vehicle 100 % WATER; for ABSOLUTE BASOPHIL / ABSOLUTE EOSINOPHIL / ABSOLUTE LYMPHOCYTE / ABSOLUTE MONOCYTE / ABSOLUTE SEGMENTED NEUTROPHIL / BASOPHIL / EOSINOPHIL / ERYTHROCYTE COUNT / HEMATOCRIT / HEMOGLOBIN / LEUKOCYTE COUNT / LYMPHOCYTE / MEAN CORPUSCULAR HEMOGLOBIN / MEAN CORPUSCULAR HEMOGLOBIN CONCENTRATION / MEAN CORPUSCULAR VOLUME / MONOCYTE / NEUTROPHIL / NUCLEATED RED BLOOD CELLS / PLATELET COUNT: tissue Blood; for ALANINE AMINOTRANSFERASE / ALBUMIN / ALKALINE PHOSPHATASE / ASPARTATE AMINOTRANSFERASE / BLOOD UREA NITROGEN / CARBON DIOXIDE / CHLORIDE / CHOLESTEROL / CREATINE PHOSPHOKINASE / CREATININE / GLUCOSE / LACTATE DEHYDROGENASE / LIPASE / PHOSPHORUS / POTASSIUM / SODIUM / TOTAL BILIRUBIN / TOTAL PROTEIN / URIC ACID: tissue Plasma
[1] = 48 mg/kg, 72 h, dose level High, time 3 day
[2] = 48 mg/kg, 120 h, dose level High, time 5 day
[3] = […], 72 h, dose 3.2 mg/Kg, dose level Low, time 3 day
[4] = […], 120 h, dose 3.2 mg/Kg, dose level Low, time 5 day

Compound: O=C(c1ccccc1)c1ccc2n1CCC2C(=O)O (configuration not stated) [KETOROLAC]
- ABSOLUTE BASOPHIL [1]: 0 CELLS/uL
- ABSOLUTE EOSINOPHIL [1]: 209.67 CELLS/uL
- ABSOLUTE LYMPHOCYTE [1]: 27063 CELLS/uL
- ABSOLUTE MONOCYTE [1]: 1382.33 CELLS/uL
- ABSOLUTE SEGMENTED NEUTROPHIL [1]: 3145 CELLS/uL
- BASOPHIL [1]: 0%
- EOSINOPHIL [1]: 0.67%
- ERYTHROCYTE COUNT [1]: 3.97 x10E6/uL
- HEMATOCRIT [1]: 23.77%
- HEMOGLOBIN [1]: 9.13 G/DL
- LEUKOCYTE COUNT [1]: 31.8 x10E3/uL
- LYMPHOCYTE [1]: 85%
- MEAN CORPUSCULAR HEMOGLOBIN [1]: 23.5 pg
- MEAN CORPUSCULAR HEMOGLOBIN CONCENTRATION [1]: 38.6 G/DL
- MEAN CORPUSCULAR VOLUME [1]: 60.83 fL
- MONOCYTE [1]: 4.33%
- NEUTROPHIL [1]: 10%
- NUCLEATED RED BLOOD CELLS [1]: 0.33 /100WBC
- PLATELET COUNT [1]: 1452.33 x10E3/uL
- ALANINE AMINOTRANSFERASE [1]: 19.67 u/L
- ALBUMIN [1]: 3.1 G/DL
- ALKALINE PHOSPHATASE [1]: 170.33 u/L
- ASPARTATE AMINOTRANSFERASE [1]: 55.33 u/L
- BLOOD UREA NITROGEN [1]: 14 mg/dL
- CARBON DIOXIDE [1]: 24 mmol/L
- CHLORIDE [1]: 105.33 MEQ/L
- CHOLESTEROL [1]: 64.67 mg/dL
- CREATINE PHOSPHOKINASE [1]: 293 u/L
- CREATININE [1]: 0.19 mg/dL
- GLUCOSE [1]: 170 mg/dL
- LACTATE DEHYDROGENASE [1]: 145.33 u/L
- LIPASE [1]: 7.67 u/L
- PHOSPHORUS [1]: 12.67 mg/dL
- POTASSIUM [1]: 7.45 MEQ/L
- SODIUM [1]: 144.47 MEQ/L
- TOTAL BILIRUBIN [1]: 0.13 mg/dL
- TOTAL PROTEIN [1]: 5.17 G/DL
- URIC ACID [1]: 3 mg/dL
- ABSOLUTE BASOPHIL [2]: 0 CELLS/uL
- ABSOLUTE EOSINOPHIL [2]: 0 CELLS/uL
- ABSOLUTE LYMPHOCYTE [2]: 14525.25 CELLS/uL
- ABSOLUTE MONOCYTE [2]: 548.5 CELLS/uL
- ABSOLUTE SEGMENTED NEUTROPHIL [2]: 4876.25 CELLS/uL
- BASOPHIL [2]: 0%
- EOSINOPHIL [2]: 0%
- ERYTHROCYTE COUNT [2]: 4.52 x10E6/uL
- HEMATOCRIT [2]: 27.15%
- HEMOGLOBIN [2]: 10.4 G/DL
- LEUKOCYTE COUNT [2]: 19.95 x10E3/uL
- LYMPHOCYTE [2]: 76.25%
- MEAN CORPUSCULAR HEMOGLOBIN [2]: 23.03 pg
- MEAN CORPUSCULAR HEMOGLOBIN CONCENTRATION [2]: 38.32 G/DL
- MEAN CORPUSCULAR VOLUME [2]: 60.12 fL
- MONOCYTE [2]: 3.25%
- NEUTROPHIL [2]: 20.5%
- NUCLEATED RED BLOOD CELLS [2]: 0.5 /100WBC
- PLATELET COUNT [2]: 2011.5 x10E3/uL
- ALANINE AMINOTRANSFERASE [2]: 73.25 u/L
- ALBUMIN [2]: 2.58 G/DL
- ALKALINE PHOSPHATASE [2]: 411.75 u/L
- ASPARTATE AMINOTRANSFERASE [2]: 294 u/L
- BLOOD UREA NITROGEN [2]: 25.5 mg/dL
- CARBON DIOXIDE [2]: 25.25 mmol/L
- CHLORIDE [2]: 102 MEQ/L
- CHOLESTEROL [2]: 70.5 mg/dL
- CREATINE PHOSPHOKINASE [2]: 1478 u/L
- CREATININE [2]: 0.18 mg/dL
- GLUCOSE [2]: 115.25 mg/dL
- LACTATE DEHYDROGENASE [2]: 533.75 u/L
- LIPASE [2]: 13.5 u/L
- PHOSPHORUS [2]: 13.42 mg/dL
- POTASSIUM [2]: 7.39 MEQ/L
- SODIUM [2]: 142.23 MEQ/L
- TOTAL BILIRUBIN [2]: 0.18 mg/dL
- TOTAL PROTEIN [2]: 5.4 G/DL
- URIC ACID [2]: 2.45 mg/dL
- ABSOLUTE BASOPHIL [3]: 0 CELLS/uL
- ABSOLUTE EOSINOPHIL [3]: 59.33 CELLS/uL
- ABSOLUTE LYMPHOCYTE [3]: 7885.33 CELLS/uL
- ABSOLUTE MONOCYTE [3]: 273 CELLS/uL
- ABSOLUTE SEGMENTED NEUTROPHIL [3]: 682.33 CELLS/uL
- BASOPHIL [3]: 0%
- EOSINOPHIL [3]: 0.67%
- ERYTHROCYTE COUNT [3]: 5.54 x10E6/uL
- HEMATOCRIT [3]: 36.1%
- HEMOGLOBIN [3]: 13.73 G/DL
- LEUKOCYTE COUNT [3]: 8.9 x10E3/uL
- LYMPHOCYTE [3]: 88.67%
- MEAN CORPUSCULAR HEMOGLOBIN [3]: 24.83 pg
- MEAN CORPUSCULAR HEMOGLOBIN CONCENTRATION [3]: 38.07 G/DL
- MEAN CORPUSCULAR VOLUME [3]: 65.27 fL
- MONOCYTE [3]: 3%
- NEUTROPHIL [3]: 7.67%
- NUCLEATED RED BLOOD CELLS [3]: 0 /100WBC
- PLATELET COUNT [3]: 1257 x10E3/uL
- ALANINE AMINOTRANSFERASE [3]: 47.67 u/L
- ALBUMIN [3]: 4.6 G/DL
- ALKALINE PHOSPHATASE [3]: 439.67 u/L
- ASPARTATE AMINOTRANSFERASE [3]: 96 u/L
- BLOOD UREA NITROGEN [3]: 11.33 mg/dL
- CARBON DIOXIDE [3]: 32.33 mmol/L
- CHLORIDE [3]: 102.5 MEQ/L
- CHOLESTEROL [3]: 64.67 mg/dL
- CREATINE PHOSPHOKINASE [3]: 218 u/L
- CREATININE [3]: 0.17 mg/dL
- GLUCOSE [3]: 144.33 mg/dL
- LACTATE DEHYDROGENASE [3]: 103.33 u/L
- LIPASE [3]: 9.33 u/L
- PHOSPHORUS [3]: 11.4 mg/dL
- POTASSIUM [3]: 6 MEQ/L
- SODIUM [3]: 148.9 MEQ/L
- TOTAL BILIRUBIN [3]: 0.0667 mg/dL
- TOTAL PROTEIN [3]: 6.63 G/DL
- URIC ACID [3]: 0.43 mg/dL
- ABSOLUTE BASOPHIL [4]: 0 CELLS/uL
- ABSOLUTE EOSINOPHIL [4]: 0 CELLS/uL
- ABSOLUTE LYMPHOCYTE [4]: 9946 CELLS/uL
- ABSOLUTE MONOCYTE [4]: 214 CELLS/uL
- ABSOLUTE SEGMENTED NEUTROPHIL [4]: 540 CELLS/uL
- BASOPHIL [4]: 0%
- EOSINOPHIL [4]: 0%
- ERYTHROCYTE COUNT [4]: 6.18 x10E6/uL
- HEMATOCRIT [4]: 38.5%
- HEMOGLOBIN [4]: 14.07 G/DL
- LEUKOCYTE COUNT [4]: 10.7 x10E3/uL
- LYMPHOCYTE [4]: 93%
- MEAN CORPUSCULAR HEMOGLOBIN [4]: 22.77 pg
- MEAN CORPUSCULAR HEMOGLOBIN CONCENTRATION [4]: 36.63 G/DL
- MEAN CORPUSCULAR VOLUME [4]: 62.23 fL
- MONOCYTE [4]: 2%
- NEUTROPHIL [4]: 5%
- NUCLEATED RED BLOOD CELLS [4]: 0 /100WBC
- PLATELET COUNT [4]: 1155 x10E3/uL
- ALANINE AMINOTRANSFERASE [4]: 40 u/L
- ALBUMIN [4]: 4.43 G/DL
- ALKALINE PHOSPHATASE [4]: 422.33 u/L
- ASPARTATE AMINOTRANSFERASE [4]: 70.67 u/L
- BLOOD UREA NITROGEN [4]: 14.67 mg/dL
- CARBON DIOXIDE [4]: 33.67 mmol/L
- CHLORIDE [4]: 102 MEQ/L
- CHOLESTEROL [4]: 81 mg/dL
- CREATINE PHOSPHOKINASE [4]: 512.33 u/L
- CREATININE [4]: 0.16 mg/dL
- GLUCOSE [4]: 169.33 mg/dL
- LACTATE DEHYDROGENASE [4]: 125 u/L
- LIPASE [4]: 9 u/L
- PHOSPHORUS [4]: 13.57 mg/dL
- POTASSIUM [4]: 6.98 MEQ/L
- SODIUM [4]: 147.2 MEQ/L
- TOTAL BILIRUBIN [4]: 0.2 mg/dL
- TOTAL PROTEIN [4]: 6.37 G/DL
- URIC ACID [4]: 1.83 mg/dL

Source: ChEMBL document CHEMBL3885881, “DrugMatrix”
